The target of the assay is T1, human cathepsin S (CatS) (Homo sapiens, UniProt P25774).
T1 construct: made in house; host or cells: baculovirus system (insect cells)
T1 sequence (P25774 115-331): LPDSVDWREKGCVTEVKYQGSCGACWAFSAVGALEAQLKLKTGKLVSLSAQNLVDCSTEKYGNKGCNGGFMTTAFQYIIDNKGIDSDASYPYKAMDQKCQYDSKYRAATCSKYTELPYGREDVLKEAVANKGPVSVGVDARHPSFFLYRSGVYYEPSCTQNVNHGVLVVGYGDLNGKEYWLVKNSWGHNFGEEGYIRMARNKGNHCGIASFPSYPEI
The experiment in a line: Recombinant human cathepsin S (CatS) fluorogenic substrate inhibition assay. The format is biochemical. As to conditions: recombinant human CatS, 10 μM Z-Valine-Valine-Arginine-AMC, pH 5.0; average of results obtained; read-out: CatS IC50. The procedure:
Recombinant human cathepsin S (CatS) was expressed in the baculovirus system and purified in one step with a thiopropyl-sepharose column. […] The assay is run in 150 mM sodium acetate pH 5.0 containing 1.5 mM DTT and 150 mM NaCl. […] Measurements are taken every min for 20 min. The rate is calculated from the slope of the increase in fluorescence and the percent inhibition is calculated from this.
The IC50 is the concentration at which inhibition is half-maximal. On to `CS(=O)(=O)N1CCc2c(c(-c3ccc(C(F)(F)F)c(CNCc4ccc(F)cc4)c3)nn2CCCN2CCC(C3CCCCC3)CC2)C1` [Example 296, (5-{1-[3-(4-Cyclohexyl-piperidin-1-yl)-propyl]-5-methanesulfonyl-4,5,6,7-tetrahydro-1H-pyrazolo[4,3-c]pyridin-3-yl}-2-trifluoromethyl-benzyl)-(4-fluoro-benzyl)-amine], for which the IC50 is 20 nM.
On to `Cc1ncsc1C(=O)NCc1cc(-c2nn(CC(O)CN3CCC(N4CCCC4=O)CC3)c3c2CN(S(C)(=O)=O)CC3)ccc1C(F)(F)F` (centres unmarked) [Example 137, 4-Methyl-thiazole-5-carboxylic acid 5-(1-{2-hydroxy-3-[4-(2-oxo-pyrrolidin-1-yl)-piperidin-1-yl]-propyl}-5-methanesulfonyl-4,5,6,7-tetrahydro-1H-pyrazolo[4,3-c]pyridin-3-yl)-2-trifluoromethyl-benzylamide], for which the IC50 amounted to 410 nM.
Turning to `CS(=O)(=O)N1CCc2c(c(-c3ccc(C(F)(F)F)c(CNC(=O)c4ccccn4)c3)nn2CC(O)CN2CCC(N3CCCC3=O)CC2)C1` (centres unmarked) [Example 53, Pyridine-2-carboxylic acid 5-(1-{2-hydroxy-3-[4-(2-oxo-pyrrolidin-1-yl)-piperidin-1-yl]-propyl}-5-methanesulfonyl-4,5,6,7-tetrahydro-1H-pyrazolo[4,3-c]pyridin-3-yl)-2-trifluoromethyl-benzylamide], the IC50 is 190 nM.
As to `CS(=O)(=O)N1CCc2c(c(-c3ccc(C(F)(F)F)c(CNC(=O)c4ccc(CO)cc4)c3)nn2CC(O)CN2CCC(N3CCCC3=O)CC2)C1` (centres unmarked) [Example 107, 4-Hydroxymethyl-N-[5-(1-{2-hydroxy-3-[4-(2-oxo-pyrrolidin-1-yl)-piperidin-1-yl]-propyl}-5-methanesulfonyl-4,5,6,7-tetrahydro-1H-pyrazolo[4,3-c]pyridin-3-yl)-2-trifluoromethyl-benzyl]-benzamide], the IC50 amounted to 70 nM.
Under `CC(O)CC(=O)NCc1cc(-c2nn(CCCN3CCC(N4CCCC4=O)CC3)c3c2CN(S(C)(=O)=O)CC3)ccc1C(F)(F)F` (centres unmarked) [Example 131, 3-Hydroxy-N-[5-(5-methanesulfonyl-1-{3-[4-(2-oxo-pyrrolidin-1-yl)-piperidin-1-yl]-propyl}-4,5,6,7-tetrahydro-1H-pyrazolo[4,3-c]pyridin-3-yl)-2-trifluoromethyl-benzyl]-butyramide] stands 270 nM; under `CC(C)CC(=O)NCc1cc(-c2nn(CC(O)CN3CCC(c4nnn[nH]4)CC3)c3c2CN(S(C)(=O)=O)CC3)ccc1C(F)(F)F` (centres unmarked) [Example 277, N-[5-(1-{2-Hydroxy-3-[4-(1H-tetrazol-5-yl)-piperidin-1-yl]-propyl}-5-methanesulfonyl-4,5,6,7-tetrahydro-1H-pyrazolo[4,3-c]pyridin-3-yl)-2-trifluoromethyl-benzyl]-3-methyl-butyramide], 140 nM.
With `CC(C)OC(=O)NCc1cc(-c2nn(CCCN3CCC(N4CCCC4=O)CC3)c3c2CN(S(C)(=O)=O)CC3)ccc1C(F)(F)F` [Example 43, [5-(5-Methanesulfonyl-1-{3-[4-(2-oxo-pyrrolidin-1-yl)-piperidin-1-yl]-propyl}-4,5,6,7-tetrahydro-1H-pyrazolo[4,3-c]pyridin-3-yl)-2-trifluoromethyl-benzyl]-carbamic acid isopropyl ester], the IC50 came to 80 nM.
Turning to `CS(=O)(=O)N1CCc2c(c(-c3ccc(Cl)c(NS(=O)(=O)/C=C/c4ccccc4)c3)nn2CCCN2CCN(c3cccc(Cl)c3)CC2)C1` [Example 203, 2-Phenyl-ethenesulfonic acid [2-chloro-5-(1-{3-[4-(3-chloro-phenyl)-piperazin-1-yl]-propyl}-5-methanesulfonyl-4,5,6,7-tetrahydro-1H-pyrazolo[4,3-c]pyridin-3-yl)-phenyl]-amide], the 50% inhibitory concentration (IC50) was found to be 690 nM.
For `CS(=O)(=O)N1CCc2c(c(-c3ccc(Cl)c(NC(=O)c4ccc([N+](=O)[O-])cc4)c3)nn2CCCN2CCN(c3cccc(Cl)c3)CC2)C1` [Example 226, N-[2-Chloro-5-(1-{3-[4-(3-chloro-phenyl)-piperazin-1-yl]-propyl}-5-methanesulfonyl-4,5,6,7-tetrahydro-1H-pyrazolo[4,3-c]pyridin-3-yl)-phenyl]-4-nitro-benzamide], the IC50 amounted to 760 nM.
Regarding `CN1CCOc2cc(C(=O)NCc3cc(-c4nn(CC(O)CN5CCC(N6CCCC6=O)CC5)c5c4CN(S(C)(=O)=O)CC5)ccc3C(F)(F)F)ccc21` (centres unmarked) [Example 122, 4-Methyl-3,4-dihydro-2H-benzo[1,4]oxazine-7-carboxylic acid 5-(1-{2-hydroxy-3-[4-(2-oxo-pyrrolidin-1-yl)-piperidin-1-yl]-propyl}-5-methanesulfonyl-4,5,6,7-tetrahydro-1H-pyrazolo[4,3-c]pyridin-3-yl)-2-trifluoromethyl-benzylamide], the IC50 amounted to 170 nM.
`CC(C)=CC(=O)NCc1cc(-c2nn(CC(O)CN3CCC(c4ccccc4)CC3)c3c2CN(S(C)(=O)=O)CC3)ccc1C(F)(F)F` (centres unmarked) [Example 274, 3-Methyl-but-2-enoic acid 5-{1-[2-hydroxy-3-(4-phenyl-piperidin-1-yl)-propyl]-5-methanesulfonyl-4,5,6,7-tetrahydro-1H-pyrazolo[4,3-c]pyridin-3-yl}-2-trifluoromethyl-benzylamide]: the IC50 came to 10 nM.
Consider `CS(=O)(=O)N1CCc2c(c(-c3ccc(C(F)(F)F)c(CNC(=O)/C=C/c4ccccc4)c3)nn2CC(O)CN2CCC(N3CCCC3=O)CC2)C1` (centres unmarked) [Example 55, N-[5-(1-{2-Hydroxy-3-[4-(2-oxo-pyrrolidin-1-yl)-piperidin-1-yl]-propyl}-5-methanesulfonyl-4,5,6,7-tetrahydro-1H-pyrazolo[4,3-c]pyridin-3-yl)-2-trifluoromethyl-benzyl]-3-phenyl-acrylamide], for which the IC50 is 320 nM.
As to `CC(C)=CC(=O)NCc1cc(-c2nn(CC(O)CN3CCC(c4nc(=O)[nH][nH]4)CC3)c3c2CN(S(C)(=O)=O)CC3)ccc1C(F)(F)F` (centres unmarked) [Example 270, 3-Methyl-but-2-enoic acid 5-(1-{2-hydroxy-3-[4-(5-oxo-2,5-dihydro-1H-[1,2,4]triazol-3-yl)-piperidin-1-yl]-propyl}-5-methanesulfonyl-4,5,6,7-tetrahydro-1H-pyrazolo[4,3-c]pyridin-3-yl)-2-trifluoromethyl-benzylamide], the IC50 is 10 nM.
Take `CS(=O)(=O)N1CCc2c(c(-c3ccc(C(F)(F)F)c(CNC(=O)c4cc5ccccc5s4)c3)nn2CC(O)CN2CCC(N3CCCC3=O)CC2)C1` (centres unmarked) [Example 106, Benzo[b]thiophene-2-carboxylic acid 5-(1-{2-hydroxy-3-[4-(2-oxo-pyrrolidin-1-yl)-piperidin-1-yl]-propyl}-5-methanesulfonyl-4,5,6,7-tetrahydro-1H-pyrazolo[4,3-c]pyridin-3-yl)-2-trifluoromethyl-benzylamide]: the IC50 came to 60 nM.
Consider `CS(=O)(=O)N1CCc2c(c(-c3ccc(C(F)(F)F)c(CNC(=O)c4cscn4)c3)nn2CC(O)CN2CCC(N3CCCC3=O)CC2)C1` (centres unmarked) [Example 114, Thiazole-4-carboxylic acid 5-(1-{2-hydroxy-3-[4-(2-oxo-pyrrolidin-1-yl)-piperidin-1-yl]-propyl}-5-methanesulfonyl-4,5,6,7-tetrahydro-1H-pyrazolo[4,3-c]pyridin-3-yl)-2-trifluoromethyl-benzylamide], for which the IC50 is 100 nM.
As for `CN(C)CC(=O)NCc1cc(-c2nn(CCCN3CCC(N4CCCC4=O)CC3)c3c2CN(S(C)(=O)=O)CC3)ccc1C(F)(F)F` [Example 38, 2-Dimethylamino-N-[5-(5-methanesulfonyl-1-{3-[4-(2-oxo-pyrrolidin-1-yl)-piperidin-1-yl]-propyl}-4,5,6,7-tetrahydro-1H-pyrazolo[4,3-c]pyridin-3-yl)-2-trifluoromethyl-benzyl]-acetamide], the IC50 was determined as 1540 nM.
Take `CN(C)c1ccc2c(n1)n(C1CCN(CC(O)Cn3nc(-c4ccc(C(F)(F)F)c(CN)c4)c4c3CCN(S(C)(=O)=O)C4)CC1)c(=O)n2C` (centres unmarked) [Example 216, 3-(1-{3-[3-(3-Aminomethyl-4-trifluoromethyl-phenyl)-5-methanesulfonyl-4,5,6,7-tetrahydro-pyrazolo[4,3-c]pyridin-1-yl]-2-hydroxy-propyl}-piperidin-4-yl)-5-dimethylamino-1-methyl-1,3-dihydro-imidazo[4,5-b]pyridin-2-one]: the IC50 was 600 nM.
Under `Cc1noc(C2CCCN(CC(O)Cn3nc(-c4ccc(C(F)(F)F)c(CNC(=O)CC(C)C)c4)c4c3CCN(S(C)(=O)=O)C4)C2)n1` (centres unmarked) [Example 285, N-[5-(1-{2-Hydroxy-3-[3-(3-methyl-[1,2,4]oxadiazol-5-yl)-piperidin-1-yl]-propyl}-5-methanesulfonyl-4,5,6,7-tetrahydro-1H-pyrazolo[4,3-c]pyridin-3-yl)-2-trifluoromethyl-benzyl]-3-methyl-butyramide] stands 390 nM; under `Cc1nn(C)c2sc(C(=O)NCc3cc(-c4nn(CC(O)CN5CCC(N6CCCC6=O)CC5)c5c4CN(S(C)(=O)=O)CC5)ccc3C(F)(F)F)cc12` (centres unmarked) [Example 123, 1,3-Dimethyl-1H-thieno[2,3-c]pyrazole-5-carboxylic acid 5-(1-{2-hydroxy-3-[4-(2-oxo-pyrrolidin-1-yl)-piperidin-1-yl]-propyl}-5-methanesulfonyl-4,5,6,7-tetrahydro-1H-pyrazolo[4,3-c]pyridin-3-yl)-2-trifluoromethyl-benzylamide], 180 nM.
As for `COc1ccc(C(=O)Nc2cc(-c3nn(CCCN4CCN(c5cccc(Cl)c5)CC4)c4c3CN(S(C)(=O)=O)CC4)ccc2Cl)cc1` [Example 228, N-[2-Chloro-5-(1-{3-[4-(3-chloro-phenyl)-piperazin-1-yl]-propyl}-5-methanesulfonyl-4,5,6,7-tetrahydro-1H-pyrazolo[4,3-c]pyridin-3-yl)-phenyl]-4-methoxy-benzamide], the IC50 is 760 nM.

These data come from patent US20080269241A1, “BICYCLIC AMINOPROPYL TETRAHYDRO-PYRAZOLO-PYRIDINE MODULATORS OF CATHEPSIN S” (priority 2007, published 2008).
